Measured values: patent US12194021B2, “Modified herbal compositions for neuromodulation” (University of Southern California, priority 2021, dated 2025)

Key:
[1] = Water solubility; format: physicochemical; settings: compared with natural DHM
[2] = Two-week Functional Observational Battery (FOB); format: in vivo, rats
Method: The results shown in Table 2 indicate that D-P is the safe compound. During the two weeks, we checked the animals' fur, response to handling, etc. […] We also made sure to observe the animals continuously for 4 hours after each treatment. We mainly focused on any negative changes in the animal's mental behavior, autonomous activity, hair, glandular secretion, feces, death, etc. We found no notable changes with these evaluations.

[3] = system: gephyrin; assay: Gephyrin level measurement (Western blot, hippocampus and cortex); format: in vivo; settings: TG-mice, 1 mg/kg oral daily
Method: 3) Gephyrin level measurement: Gephyrin amounts in control (group housing), AD, and AD+D-P group were determined. All mice brains were taken and prepared for assays. SDS-PAGE and Western blot analysis. Proteins were separated on SDS-polyacrylamide gels (Sigma) using the Bio-Rad Mini-Protean 3 cell system. Proteins were transferred on a polyvinylidene difluoride (PDVF) membrane (Sigma) and blocked with 4% non-fat dry milk. Blots were incubated overnight at 4° C. with rabbit anti-gephyrin (Santa Cruz, 1:200) and mouse anti-β-actin (Sigma, 1:1000), followed by HRP-conjugated secondary antibodies (1:5000) for two hours at room temperature. Bands were detected using ECL detection kit (Sigma) and exposed to X-ray films. Bands were analyzed by densitometry using ImageQuant5.2 (Molecular Dynamics), normalized to the corresponding β-actin signal and compared.
Gephyrin is the key scaffolding protein that organizes the inhibitory postsynaptic receptor density involving GABAAR clustering at postsynaptic sites. Gephyrin not only has a structural function at GABAergic synaptic sites, but also plays a crucial role in synaptic dynamics. Therefore, we examined the protein levels of gephyrin in the hippocampus (left) and cortex (right) in the TG-mice and in D-P treated TG-mice compared to wt control. […]

[4] = female rats, 1 mg/kg oral daily, day0
[5] = female rats, 1 mg/kg oral daily, day3
[6] = female rats, 1 mg/kg oral daily, day5
[7] = female rats, 1 mg/kg oral daily, day8
[8] = female rats, 1 mg/kg oral daily, day10
[9] = female rats, 1 mg/kg oral daily, day12
[10] = female rats, 1 mg/kg oral daily, day14
[11] = female rats, 10 mg/kg oral daily, day0
[12] = female rats, 10 mg/kg oral daily, day3
[13] = female rats, 10 mg/kg oral daily, day5
[14] = female rats, 10 mg/kg oral daily, day8
[15] = female rats, 10 mg/kg oral daily, day10
[16] = female rats, 10 mg/kg oral daily, day12
[17] = female rats, 10 mg/kg oral daily, day14
[18] = female rats, 100 mg/kg oral daily, day0
[19] = female rats, 100 mg/kg oral daily, day3
[20] = female rats, 100 mg/kg oral daily, day5
[21] = female rats, 100 mg/kg oral daily, day8
[22] = female rats, 100 mg/kg oral daily, day10
[23] = female rats, 100 mg/kg oral daily, day12
[24] = female rats, 100 mg/kg oral daily, day14
[25] = male rats, 1 mg/kg oral daily, day0
[26] = male rats, 1 mg/kg oral daily, day3
[27] = male rats, 1 mg/kg oral daily, day5
[28] = male rats, 1 mg/kg oral daily, day8
[29] = male rats, 1 mg/kg oral daily, day10
[30] = male rats, 1 mg/kg oral daily, day12
[31] = male rats, 1 mg/kg oral daily, day14
[32] = male rats, 10 mg/kg oral daily, day0
[33] = male rats, 10 mg/kg oral daily, day3
[34] = male rats, 10 mg/kg oral daily, day5
[35] = male rats, 10 mg/kg oral daily, day8
[36] = male rats, 10 mg/kg oral daily, day10
[37] = male rats, 10 mg/kg oral daily, day12
[38] = male rats, 10 mg/kg oral daily, day14
[39] = male rats, 100 mg/kg oral daily, day0
[40] = male rats, 100 mg/kg oral daily, day3
[41] = male rats, 100 mg/kg oral daily, day5
[42] = male rats, 100 mg/kg oral daily, day8
[43] = male rats, 100 mg/kg oral daily, day10
[44] = male rats, 100 mg/kg oral daily, day12
[45] = male rats, 100 mg/kg oral daily, day14
[46] = rats, oral daily 1, 10 and 100 mg/kg, two weeks

## piperidin-1-ium (2R,3R)-2-(3,4-dihydroxy-5-oxidophenyl)-3,5-dihydroxy-4-oxochroman-7-olate [D-P]
[1]
  water solubility: can be dissolved into water
[2]; [4]
  Breath (B): 85 ± 0.5 per minute
  Pulse (P): 366 ± 1.0 beats/minute
  Temperature (T): 36.5 ± 0.4 °C
[2]; [5]
  Breath (B): 85 ± 0.5 per minute
  Pulse (P): 366 ± 0.4 beats/minute
  Temperature (T): 36.5 ± 0.3 °C
[2]; [6]
  Breath (B): 85 ± 0.4 per minute
  Pulse (P): 366 ± 1.3 beats/minute
  Temperature (T): 36.5 ± 1.1 °C
[2]; [7]
  Breath (B): 85 ± 0.5 per minute
  Pulse (P): 366 ± 4.1 beats/minute
  Temperature (T): 36.5 ± 1.2 °C
[2]; [8]
  Breath (B): 85 ± 0.5 per minute
  Pulse (P): 366 ± 1.0 beats/minute
  Temperature (T): 36.5 ± 0.4 °C
[2]; [9]
  Breath (B): 85 ± 0.5 per minute
  Pulse (P): 366 ± 7.4 beats/minute
  Temperature (T): 36.5 ± 0.3 °C
[2]; [10]
  Breath (B): 85 ± 0.4 per minute
  Pulse (P): 366 ± 6.3 beats/minute
  Temperature (T): 36.5 ± 1.1 °C
[2]; [11]
  Breath (B): 86 ± 0.6 per minute
  Pulse (P): 367 ± 0.5 beats/minute
  Temperature (T): 36.3 ± 0.6 °C
[2]; [12]
  Breath (B): 86 ± 0.5 per minute
  Pulse (P): 371 ± 2.2 beats/minute
  Temperature (T): 36.3 ± 0.7 °C
[2]; [13]
  Breath (B): 86 ± 0.5 per minute
  Pulse (P): 369 ± 6.8 beats/minute
  Temperature (T): 36.3 ± 1.0 °C
[2]; [14]
  Breath (B): 86 ± 0.5 per minute
  Pulse (P): 368 ± 6.1 beats/minute
  Temperature (T): 36.3 ± 1.2 °C
[2]; [15]
  Breath (B): 86 ± 0.6 per minute
  Pulse (P): 366 ± 6.5 beats/minute
  Temperature (T): 36.3 ± 0.6 °C
[2]; [16]
  Breath (B): 86 ± 0.5 per minute
  Pulse (P): 367 ± 9.2 beats/minute
  Temperature (T): 36.3 ± 0.7 °C
[2]; [17]
  Breath (B): 86 ± 0.5 per minute
  Pulse (P): 372 ± 6.8 beats/minute
  Temperature (T): 36.3 ± 1.0 °C
[2]; [18]
  Breath (B): 85 ± 0.6 per minute
  Pulse (P): 366 ± 9.5 beats/minute
  Temperature (T): 36.2 ± 0.7 °C
[2]; [19]
  Breath (B): 85 ± 0.4 per minute
  Pulse (P): 364 ± 0.5 beats/minute
  Temperature (T): 36.2 ± 0.7 °C
[2]; [20]
  Breath (B): 85 ± 0.8 per minute
  Pulse (P): 371 ± 1.5 beats/minute
  Temperature (T): 36.2 ± 0.7 °C
[2]; [21]
  Breath (B): 85 ± 0.6 per minute
  Pulse (P): 367 ± 1.5 beats/minute
  Temperature (T): 36.2 ± 0.9 °C
[2]; [22]
  Breath (B): 85 ± 0.6 per minute
  Pulse (P): 369 ± 9.5 beats/minute
  Temperature (T): 36.2 ± 0.7 °C
[2]; [23]
  Breath (B): 85 ± 0.4 per minute
  Pulse (P): 373 ± 6.5 beats/minute
  Temperature (T): 36.2 ± 0.7 °C
[2]; [24]
  Breath (B): 85 ± 0.8 per minute
  Pulse (P): 371 ± 4.5 beats/minute
  Temperature (T): 36.2 ± 0.7 °C
[2]; [25]
  Breath (B): 84 ± 0.3 per minute
  Pulse (P): 367 ± 2.1 beats/minute
  Temperature (T): 36.1 ± 0.3 °C
[2]; [26]
  Breath (B): 85 ± 0.4 per minute
  Pulse (P): 366 ± 2.5 beats/minute
  Temperature (T): 36.4 ± 0.7 °C
[2]; [27]
  Breath (B): 85 ± 0.5 per minute
  Pulse (P): 366 ± 1.5 beats/minute
  Temperature (T): 36.5 ± 0.5 °C
[2]; [28]
  Breath (B): 85 ± 0.5 per minute
  Pulse (P): 366 ± 1.3 beats/minute
  Temperature (T): 36.4 ± 1.0 °C
[2]; [29]
  Breath (B): 85 ± 0.3 per minute
  Pulse (P): 366 ± 0.2 beats/minute
  Temperature (T): 36.5 ± 0.3 °C
[2]; [30]
  Breath (B): 85 ± 0.5 per minute
  Pulse (P): 366 ± 1.5 beats/minute
  Temperature (T): 36.5 ± 0.5 °C
[2]; [31]
  Breath (B): 85 ± 0.5 per minute
  Pulse (P): 366 ± 1.5 beats/minute
  Temperature (T): 36.5 ± 0.5 °C
[2]; [32]
  Breath (B): 86 ± 0.2 per minute
  Pulse (P): 366 ± 5.2 beats/minute
  Temperature (T): 36.5 ± 0.5 °C
[2]; [33]
  Breath (B): 86 ± 0.6 per minute
  Pulse (P): 370 ± 0.5 beats/minute
  Temperature (T): 36.4 ± 0.6 °C
[2]; [34]
  Breath (B): 86 ± 0.5 per minute
  Pulse (P): 374 ± 0.5 beats/minute
  Temperature (T): 36.5 ± 0.5 °C
[2]; [35]
  Breath (B): 86 ± 0.5 per minute
  Pulse (P): 370 ± 1.9 beats/minute
  Temperature (T): 36.4 ± 1.1 °C
[2]; [36]
  Breath (B): 86 ± 0.2 per minute
  Pulse (P): 372 ± 6.2 beats/minute
  Temperature (T): 36.5 ± 0.5 °C
[2]; [37]
  Breath (B): 86 ± 0.5 per minute
  Pulse (P): 373 ± 4.5 beats/minute
  Temperature (T): 36.5 ± 0.5 °C
[2]; [38]
  Breath (B): 86 ± 0.5 per minute
  Pulse (P): 371 ± 7.5 beats/minute
  Temperature (T): 36.5 ± 0.5 °C
[2]; [39]
  Breath (B): 86 ± 0.5 per minute
  Pulse (P): 371 ± 0.6 beats/minute
  Temperature (T): 36.4 ± 1.0 °C
[2]; [40]
  Breath (B): 86 ± 0.3 per minute
  Pulse (P): 365 ± 8.1 beats/minute
  Temperature (T): 36.3 ± 0.7 °C
[2]; [41]
  Breath (B): 86 ± 0.3 per minute
  Pulse (P): 367 ± 0.9 beats/minute
  Temperature (T): 36.4 ± 0.8 °C
[2]; [42]
  Breath (B): 86 ± 0.5 per minute
  Pulse (P): 365 ± 9.5 beats/minute
  Temperature (T): 36.3 ± 1.5 °C
[2]; [43]
  Breath (B): 86 ± 0.5 per minute
  Pulse (P): 368 ± 8.7 beats/minute
  Temperature (T): 36.4 ± 1.0 °C
[2]; [44]
  Breath (B): 86 ± 0.3 per minute
  Pulse (P): 371 ± 5.9 beats/minute
  Temperature (T): 36.4 ± 0.8 °C
[2]; [45]
  Breath (B): 86 ± 0.3 per minute
  Pulse (P): 369 ± 5.9 beats/minute
  Temperature (T): 36.4 ± 0.8 °C
[2]; [46]
  FOB overall observation: did not find any notable negative changes
  deaths or injuries: No deaths or injuries
[3]; 1 month
  gephyrin levels: partly recovered
[3]; 3 months
  gephyrin levels: restored to control levels
